This is an account of results in US20260092061A1, “COMPOUNDS FOR TARGETED PROTEIN DEGRADATION” (Amphista Therapeutics Limited, priority 2022, published 2026).

What is called DC50 is the midpoint of the concentration-degradation curve.

Assay [1] addresses T1, BRD9 (Homo sapiens, UniProt Q9H8M2).
T1 sequence (Q9H8M2 1-597): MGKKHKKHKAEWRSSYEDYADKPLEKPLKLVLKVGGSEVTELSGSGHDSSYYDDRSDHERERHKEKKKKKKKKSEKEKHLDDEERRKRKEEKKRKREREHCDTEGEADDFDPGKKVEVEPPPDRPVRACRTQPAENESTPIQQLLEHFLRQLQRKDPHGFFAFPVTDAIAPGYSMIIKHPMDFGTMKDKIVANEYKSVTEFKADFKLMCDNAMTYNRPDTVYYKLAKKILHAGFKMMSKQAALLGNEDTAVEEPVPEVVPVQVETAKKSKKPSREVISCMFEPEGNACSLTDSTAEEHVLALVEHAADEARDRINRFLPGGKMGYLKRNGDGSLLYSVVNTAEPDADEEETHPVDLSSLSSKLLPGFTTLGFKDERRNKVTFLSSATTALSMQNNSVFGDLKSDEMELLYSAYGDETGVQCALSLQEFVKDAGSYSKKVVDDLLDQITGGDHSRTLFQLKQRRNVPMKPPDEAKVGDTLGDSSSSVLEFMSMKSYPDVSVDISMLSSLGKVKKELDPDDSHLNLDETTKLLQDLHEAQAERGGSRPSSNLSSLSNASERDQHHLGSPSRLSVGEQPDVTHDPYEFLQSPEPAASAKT
Description: Degradation of BRD9 (IF), immunofluorescence in MV4-11 cells, 24 hours (Assay Protocol 2). On the set-up: A suspension of MV4-11 cells (ATCC CRL-9591) was prepared; host or cells: MV4-11. Format: cell-based. The gist of the method:
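MV4-11 cells treated with compound 24 h at 37° C., then fixed, permeabilised and immunostained for BRD9 (anti-BRD9 E4Q3F, Alexa 647 secondary, Hoechst counterstain). High-content imaging quantified nuclear BRD9 signal; % BRD9 remaining normalised to DMSO and 100 nM CFT-8634 controls.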

Assay [2] addresses T1, BRD9. Description: BRD9 degradation, HiBiT-BRD9 KI HEK293 (LgBiT) cells, NanoGlo Lytic Endpoint assay (Assay Protocol 1). Format: cell-based. The note with it: BRD9 degradation; for Dmax at 1 µM / Dmax: HEK293; for Dmax at 1 µM: 1 μM compound at 6 h of treatment, read-out: Assay 1 Dmax; for Dmax: read-out: Dmax. The gist of the method: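 HiBiT-tagged BRD9 knock-in HEK293 (LgBiT) cells exposed to compounds for 6 h at 37 °C, 5% CO2. Residual BRD9 measured by HiBiT lytic luminescence. % BRD9 remaining normalised to DMSO-treated cells (high) and no-cell wells (low).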
(In general: HiBiT is a short tag that completes a luciferase, so light tracks the accessible tagged protein.)

The mark [3] stands for this setting: MV4-11, 24 h, Table 2, BRD9 degradation (IF), Assay Protocol 2, MV4-11 cells, read-out: Assay 2 DCmax.
Where [4] appears, read: Table 2, BRD9 degradation (IF), Assay Protocol 2, MV4-11 cells, read-out: Assay 2 DC50.
Where [5] appears, read: Table 2, Assay Protocol 1, 6 h of treatment, read-out: Assay 1 DC50.
Setting [6] is: Assay protocol 2, BRD9 degradation, read-out: DC50.
[7] abbreviates: MV4-11, Assay protocol 2, BRD9 degradation, read-out: Dmax.
The mark [8] stands for this setting: Assay protocol 1, read-out: DC50.

Regarding `COc1cc(-c2cn(C)c(=O)c3cnccc23)cc(OC)c1CN(C)Cc1ccc2c(c1)CCN(C(=O)/C(C#N)=C/c1cccc(Br)n1)C2C` (mixture of isomers) [Compound A66], the Dmax in assay [1] (setting [3]) is greater than 75%. Further, the 50% degradation concentration (DC50) in assay [1] (setting [4]) and in assay [2] (setting [5]) was less than 1.25 nM each time. For the same molecule, the Dmax at 1 µM in assay [2] (Table 2, Assay Protocol 1) is 40 to 70%.

For `COc1cccc(/C=C(\C#N)C(=O)N2CCc3c(CN4CCN(Cc5c(OC)cc(-c6cn(C)c(=O)c(C)c6C)cc5OC)CC4)cccc3C2C)n1` (mixture of isomers) [Compound A67, (E/Z)-2-(5-((4-(2,6-dimethoxy-4-(1,4,5-trimethyl-6-oxo-1,6-dihydropyridin-3-yl)benzyl)piperazin-1-yl)methyl)-1-methyl-1,2,3,4-tetrahydroisoquinoline-2-carbonyl)-3-(6-methoxypyridin-2-yl)acrylonitrile], the Dmax in assay [1] (setting [3]) fell in the range of 40 to 70%. Further, in assay [2] (Table 2, Assay Protocol 1), the Dmax at 1 µM lay in the range of 40 to 70%. In addition, the DC50 in assay [2] (setting [5]) lay within 1.25 to 10 nM.

Regarding `COc1cc(-c2cn(C)c(=O)c(C)c2C)cc(OC)c1CN1CC2CC1CN2Cc1cccc2c1CCN(C(=O)/C(C#N)=C/C(C)(C)C)C2C` (mixture of isomers) [Compound A70, (E/Z)-2-(5-((5-(2,6-dimethoxy-4-(1,4,5-trimethyl-6-oxo-1,6-dihydropyridin-3-yl)benzyl)-2,5-diazabicyclo[2.2.1]heptan-2-yl)methyl)-1-methyl-1,2,3,4-tetrahydroisoquinoline-2-carbonyl)-4,4-dimethylpent-2-enenitrile], in assay [1] (setting [3]), the Dmax lay in the range of 70 to 75%. The 50% degradation concentration (DC50) was less than 1.25 nM in assay [1] (setting [4]) and 10 to 25 nM in assay [2] (setting [5]). The Dmax at 1 µM in assay [2] (Table 2, Assay Protocol 1) is 40 to 70%.

For the molecule `COc1cc(-c2cn(C)c(=O)c3cc(C(=O)NCCOc4ccc5c(c4)CCN(C(=O)/C(C#N)=C/c4nccs4)C5C)sc23)cc(OC)c1CN(C)C` (mixture of isomers) [Compound A74], the Dmax in assay [1] (setting [3]) fell in the range of 40 to 70%. The 50% degradation concentration (DC50) in assay [1] (setting [4]) lay within 1.25 to 10 nM; in assay [2] (setting [5]), 25 to 300 nM. Moreover, the Dmax at 1 µM in assay [2] (Table 2, Assay Protocol 1) was in the range of 40 to 70%.

In the case of `COc1cc(-c2cn(C)c(=O)c3cc(C(=O)NCCCCCOc4ccc5c(c4)CCN(C(=O)/C(C#N)=C/c4nccs4)C5C)sc23)cc(OC)c1CN(C)C` (mixture of isomers) [Compound A75, (E/Z)—N-(5-((2-(2-cyano-3-(thiazol-2-yl)acryloyl)-1-methyl-1,2,3,4-tetrahydroisoquinolin-6-yl)oxy)pentyl)-7-(4-((dimethylamino)methyl)-3,5-dimethoxyphenyl)-5-methyl-4-oxo-4,5-dihydrothieno[3,2-c]pyridine-2-carboxamide], the Dmax in assay [1] (setting [3]) is greater than 75%. For the same molecule, the 50% degradation concentration (DC50) in assay [1] (setting [4]) was 1.25 to 10 nM; in assay [2] (setting [5]) it was 25 to 300 nM. Besides, the Dmax at 1 µM in assay [2] (Table 2, Assay Protocol 1) was 40 to 70%.

Turning to `COc1cc(-c2cn(C)c(=O)c3cc(C(=O)NCCCCCOc4cccc(C5CCCN5C(=O)/C(C#N)=C/c5nccs5)c4)sc23)cc(OC)c1CN(C)C` (mixture of isomers) [Compound A76, (E/Z)—N-(5-(3-(1-(2-cyano-3-(thiazol-2-yl)acryloyl)pyrrolidin-2-yl)phenoxy)pentyl)-7-(4-((dimethylamino)methyl)-3,5-dimethoxyphenyl)-5-methyl-4-oxo-4,5-dihydrothieno[3,2-c]pyridine-2-carboxamide], the Dmax in assay [1] (setting [3]) was 70 to 75%. In addition, the DC50 in assay [1] (setting [4]) is less than 1.25 nM; in assay [2] (setting [5]), 25 to 300 nM. Moreover, the Dmax at 1 µM in assay [2] (Table 2, Assay Protocol 1) lay in the range of 40 to 70%.

`COc1cc(-c2cn(C)c(=O)c(C)c2C)cc(OC)c1CN1CCN(Cc2cccc3c2CCN(C(=O)/C(C#N)=C/C2CC(F)(F)C2)C3C)CC1` (mixture of isomers) [Compound B1, (E/Z)-3-(3,3-difluorocyclobutyl)-2-(5-((4-(2,6-dimethoxy-4-(1,4,5-trimethyl-6-oxo-1,6-dihydropyridin-3-yl)benzyl)piperazin-1-yl)methyl)-1-methyl-1,2,3,4-tetrahydroisoquinoline-2-carbonyl)acrylonitrile]: the DC50 in assay [1] (setting [6]) was less than 1.25 nM. Further, the Dmax in assay [1] (setting [7]) and in assay [2] (Assay protocol 1) was 40 to 70% in each case.

Consider `COc1cc(-c2cn(C)c(=O)c(C)c2C)cc(OC)c1CN1CCCN(Cc2cccc3c2CCN(C(=O)/C(C#N)=C/c2cccc(Br)n2)C3C)CC1` (mixture of isomers) [Compound B2, (E/Z)-3-(6-bromopyridin-2-yl)-2-(5-((4-(2,6-dimethoxy-4-(1,4,5-trimethyl-6-oxo-1,6-dihydropyridin-3-yl)benzyl)-1,4-diazepan-1-yl)methyl)-1-methyl-1,2,3,4-tetrahydroisoquinoline-2-carbonyl)acrylonitrile], for which the half-maximal degradation concentration (DC50) in assay [1] (setting [6]) and in assay [2] (setting [8]) was 1.25 to 10 nM in each case. For the same molecule, the Dmax in assay [1] (setting [7]) was 70 to 75%; in assay [2] (Assay protocol 1), greater than 75%.

With `COc1cc(-c2cn(C)c(=O)c(C)c2C)cc(OC)c1CN1CC2CCC(C1)N2Cc1cccc2c1CCN(C(=O)/C(C#N)=C/C(C)(C)C)C2C` (mixture of isomers) [Compound B3, (E/Z)-2-(5-((3-(2,6-dimethoxy-4-(1,4,5-trimethyl-6-oxo-1,6-dihydropyridin-3-yl)benzyl)-3,8-diazabicyclo[3.2.1]octan-8-yl)methyl)-1-methyl-1,2,3,4-tetrahydroisoquinoline-2-carbonyl)-4,4-dimethylpent-2-enenitrile], the half-maximal degradation concentration (DC50) in assay [1] (setting [6]) and in assay [2] (setting [8]) was 10 to 25 nM in each case. Further, the Dmax in assay [1] (setting [7]) and in assay [2] (Assay protocol 1) was greater than 75% in each case.

As to `COc1cc(-c2cn(C)c(=O)c(C)c2C)cc(OC)c1CN1CCN(Cc2cccc3c2CCN(C(=O)/C(C#N)=C/c2cc(C)on2)C3C)CC1` (mixture of isomers) [Compound B4, (E/Z)-2-(5-((4-(2,6-dimethoxy-4-(1,4,5-trimethyl-6-oxo-1,6-dihydropyridin-3-yl)benzyl)piperazin-1-yl)methyl)-1-methyl-1,2,3,4-tetrahydroisoquinoline-2-carbonyl)-3-(5-methylisoxazol-3-yl)acrylonitrile], the DC50 in assay [1] (setting [6]) and in assay [2] (setting [8]) was 1.25 to 10 nM each time. Also, the Dmax in assay [1] (setting [7]) and in assay [2] (Assay protocol 1) was 40 to 70% throughout.

Turning to `COc1cc(-c2cn(C)c(=O)c(C)c2C)cc(OC)c1CN(C)Cc1ccc2c(c1)C(C)N(C(=O)/C(C#N)=C/c1cccc(Br)n1)CC2` (mixture of isomers) [Compound B5, (E/Z)-3-(6-bromopyridin-2-yl)-2-(7-(((2,6-dimethoxy-4-(1,4,5-trimethyl-6-oxo-1,6-dihydropyridin-3-yl)benzyl)(methyl)amino)methyl)-1-methyl-1,2,3,4-tetrahydroisoquinoline-2-carbonyl)acrylonitrile], the DC50 in assay [1] (setting [6]) is less than 1.25 nM; in assay [2] (setting [8]), 1.25 to 10 nM. Further, the Dmax in assay [1] (setting [7]) and in assay [2] (Assay protocol 1) was greater than 75% in each case.

As to `COc1cc(-c2cn(C)c(=O)c(C)c2C)cc(OC)c1CN1CC2CC(C1)N2Cc1cccc2c1CCN(C(=O)/C(C#N)=C/c1cccc(Br)n1)C2C` (mixture of isomers) [Compound B7, (E/Z)-3-(6-bromopyridin-2-yl)-2-(5-((3-(2,6-dimethoxy-4-(1,4,5-trimethyl-6-oxo-1,6-dihydropyridin-3-yl)benzyl)-3,6-diazabicyclo[3.1.1]heptan-6-yl)methyl)-1-methyl-1,2,3,4-tetrahydroisoquinoline-2-carbonyl)acrylonitrile], the DC50 is less than 1.25 nM in assay [1] (setting [6]) and 1.25 to 10 nM in assay [2] (setting [8]). Further, the Dmax in assay [1] (setting [7]) and in assay [2] (Assay protocol 1) was 40 to 70% each time.

As for `COc1cc(-c2cn(C)c(=O)c(C)c2C)cc(OC)c1CN1CCN(Cc2cccc3c2CCN(C(=O)/C(C#N)=C/c2ccnc(C)n2)C3C)CC1` (mixture of isomers) [Compound B9, (E/Z)-2-(5-((4-(2,6-dimethoxy-4-(1,4,5-trimethyl-6-oxo-1,6-dihydropyridin-3-yl)benzyl)piperazin-1-yl)methyl)-1-methyl-1,2,3,4-tetrahydroisoquinoline-2-carbonyl)-3-(2-methylpyrimidin-4-yl)acrylonitrile], the DC50 in assay [1] (setting [6]) and in assay [2] (setting [8]) was less than 1.25 nM each time. Also, the Dmax in assay [1] (setting [7]) and in assay [2] (Assay protocol 1) was greater than 75% throughout.
